# Reference: patent US20180327396A1, “NOVEL PYRIDINE DERIVATIVES” (Hoffmann-La Roche Inc., priority 2014, published 2018)
# Molecular target: T1, human CB2 receptors (Homo sapiens, UniProt P34972)
# T1 construct: expressed in transfected cells; host or cells: CHO cells
# Test: cAMP assay
# Assay type: cell-based
# Conditions: not given
# Protocol: CHO cells expressing human CB1 or CB2 receptors are seeded 17-24 hours prior to the experiment 50.000 cells per well in a black 96 well plate with flat clear bottom (Corning Costar #3904) in DMEM (Invitrogen No. 31331), 1× HT supplement, with 10% fetal calf serum and incubated at 5% CO2 and 37° C. in a humidified incubator. The growth medium was exchanged with Krebs Ringer Bicarbonate buffer with 1 mM IBMX and incubated at 30° C. for 30 min. Compounds were added to a final assay volume of 100 μl and incubated for 30 min at 30° C. Using the cAMP-Nano-TRF detection kit the assay (Roche Diagnostics) was stopped by the addition of 50 μl lysis reagent (Tris, NaCl, 1.5% Triton X100, 2.5% NP40, 10% NaN3) and 50 μl detection solutions (20 μM mAb Alexa700-cAMP 1:1, and 48 μM Ruthenium-2-AHA-cAMP) and shaken for 2 h at room temperature. The time-resolved energy transfer is measured by a TRF reader (Evotec Technologies GmbH), equipped with a ND:YAG laser as excitation source. The plate is measured twice with the excitation at 355 nm and at the emission with a delay of 100 ns and a gate of 100 ns, total exposure time 10 s at 730 (bandwidth 30 nm) or 645 nm (bandwidth 75 nm), respectively. The FRET signal is calculated as follows: FRET=T730−Alexa730−P(T645−B645) with P=Ru730−B730/Ru645−B645, where T730 is the test well measured at […], T645 is the test well measured at 645 nm, B730 and B645 are the buffer controls at 730 nm and 645 nm, respectively. cAMP content is determined from the function of a standard curve spanning from 10 μM to 0.13 nM cAMP.
# EC50 values were determined using Activity Base analysis (ID Business Solution, Limited). The EC50 values for a wide range of cannabinoid agonists generated from this assay for reference compounds were in agreement with the values published in the scientific literature.
# T1 sequence (P34972 whole entry): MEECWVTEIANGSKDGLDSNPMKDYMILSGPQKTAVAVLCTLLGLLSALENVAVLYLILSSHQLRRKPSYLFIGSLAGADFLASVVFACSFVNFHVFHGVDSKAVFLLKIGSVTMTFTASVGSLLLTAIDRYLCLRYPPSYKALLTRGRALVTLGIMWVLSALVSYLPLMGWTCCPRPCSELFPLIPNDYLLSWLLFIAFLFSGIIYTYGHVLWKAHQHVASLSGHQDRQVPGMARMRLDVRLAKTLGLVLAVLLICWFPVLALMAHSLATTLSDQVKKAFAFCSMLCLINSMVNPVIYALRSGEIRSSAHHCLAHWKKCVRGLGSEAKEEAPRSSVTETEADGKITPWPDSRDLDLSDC
row,SMILES,EC50
1,"COCCOCC(C)(C)c1cc(NC(=O)c2ccc(C3CC3)c(OCC3CC3)n2)on1 [Example 18, 5-Cyclopropyl-6-(cyclopropylmethoxy)-N-[3-[1-(2-methoxyethoxy)-2-methylpropan-2-yl]-1,2-oxazol-5-yl]pyridine-2-carboxamide]",35.2 nM
2,"CCOCCOCC(C)(C)c1cc(NC(=O)c2ccc(C3CC3)c(OCC3CC3)n2)on1 [Example 20, 5-Cyclopropyl-6-(cyclopropylmethoxy)-N-[3-[1-(2-ethoxyethoxy)-2-methylpropan-2-yl]-1,2-oxazol-5-yl]pyridine-2-carboxamide]",22.5 nM
3,"CC(C)(NC(=O)c1cccc(-c2ccc(Cl)cc2Cl)n1)c1nnc(-c2ccccc2)o1 [Example 14, 6-(2,4-Dichlorophenyl)-N-[2-(5-phenyl-1,3,4-oxadiazol-2-yl)propan-2-yl]pyridine-2-carboxamide]",227 nM
4,"CC(C)(COC1CCCCO1)c1cc(NC(=O)c2cnc(C3CC3)c(OCC3CC3)n2)on1 (stereo not drawn) [Example 24, 5-Cyclopropyl-6-(cyclopropylmethoxy)-N-[3-[2-methyl-1-(oxan-2-yloxy)propan-2-yl]-1,2-oxazol-5-yl]pyrazine-2-carboxamide]",75.2 nM
5,"CC(C)(Cc1nnc(-c2ccccc2)o1)NC(=O)c1ccc(Nc2ccc(Cl)cc2Cl)c(Cl)n1 [Example 9, 6-Chloro-5-(2,4-dichloroanilino)-N-[2-methyl-1-(5-phenyl-1,3,4-oxadiazol-2-yl)propan-2-yl]pyridine-2-carboxamide]",36.7 nM
6,"NC(=O)[C@H]1CSCCN1C(=O)c1cnc(C2CC2)c(OCC2CC2)n1 [Example 23, (+)-4-[5-Cyclopropyl-6-(cyclopropylmethoxy)pyrazine-2-carbonyl]thiomorpholine-3-carboxamide]",589 nM
7,"COCCOCC(C)(C)c1cc(NC(=O)c2ccc(N3CC(F)(F)C3)c(OCC3CC3)n2)on1 [Example 16, 6-(Cyclopropylmethoxy)-5-(3,3-difluoroazetidin-1-yl)-N-[3-[1-(2-methoxyethoxy)-2-methylpropan-2-yl]-1,2-oxazol-5-yl]pyridine-2-carboxamide]",218 nM
8,"CC(C)(Cc1nnc(C2CC2)o1)NC(=O)c1cccc(-c2ccc(Cl)cc2)n1 [Example 1, 6-(4-Chlorophenyl)-N-[1-(5-cyclopropyl-1,3,4-oxadiazol-2-yl)-2-methylpropan-2-yl]pyridine-2-carboxamide]",497 nM
9,"CC(C)(Cc1nnc(-c2ccccc2)o1)NC(=O)c1ccc(C2CC2)c(-c2ccc(Cl)cc2)n1 [Example 10, 6-(4-Chlorophenyl)-5-cyclopropyl-N-[2-methyl-1-(5-phenyl-1,3,4-oxadiazol-2-yl)propan-2-yl]pyridine-2-carboxamide]",265 nM
10,"CC(C)(C)OC(=O)N1CCOC(CNC(=O)c2ccc(C3CC3)c(Cc3ccc(F)cc3)n2)C1 (stereo not drawn) [Example 22, tert-Butyl 2-[[[5-cyclopropyl-6-[(4-fluorophenyl)methyl]pyridine-2-carbonyl]amino]methyl]morpholine-4-carboxylate]",101 nM
11,"Cc1nnc(C(C)(C)NC(=O)c2cccc(-c3ccc(Cl)cc3Cl)n2)o1 [Example 15, 6-(2,4-Dichlorophenyl)-N-[2-(5-methyl-1,3,4-oxadiazol-2-yl)propan-2-yl]pyridine-2-carboxamide]",107 nM
12,"CC(C)(CO)c1cc(NC(=O)c2ccc(C3CC3)c(OCC3CC3)n2)on1 [Example 19, 5-Cyclopropyl-6-(cyclopropylmethoxy)-N-[3-(1-hydroxy-2-methylpropan-2-yl)-1,2-oxazol-5-yl]pyridine-2-carboxamide]",139 nM
13,"CC(C)(Cc1nc(C2CC2)no1)NC(=O)c1cccc(-c2cccc(Cl)c2)n1 [Example 7, 6-(3-Chlorophenyl)-N-[1-(3-cyclopropyl-1,2,4-oxadiazol-5-yl)-2-methylpropan-2-yl]pyridine-2-carboxamide]",244 nM
14,"O=C(NC12CC3CC(CC(O)(C3)C1)C2)c1ccc(N2CC(F)(F)C2)c(OCC2CC2)n1 [Example 21, 6-(Cyclopropylmethoxy)-5-(3,3-difluoroazetidin-1-yl)-N-(3-hydroxy-1-adamantyl)pyridine-2-carboxamide]",81.6 nM
15,"CC(C)(Cc1nnc(-c2ccccc2)o1)NC(=O)c1cccc(-c2cccc(Cl)c2)n1 [Example 6, 6-(3-Chlorophenyl)-N-[2-methyl-1-(5-phenyl-1,3,4-oxadiazol-2-yl)propan-2-yl]pyridine-2-carboxamide]",182 nM
16,"COCCOc1cccc(C(=O)NC(C)(C)Cc2nc(-c3ccccc3)no2)n1 [Example 11, 6-(2-Methoxyethoxy)-N-[2-methyl-1-(3-phenyl-1,2,4-oxadiazol-5-yl)propan-2-yl]pyridine-2-carboxamide]",573 nM
17,"CC(C)(CO)n1cc(NC(=O)c2ccc(C3CC3)c(OCC3CC3)n2)cn1 [Example 17, 5-Cyclopropyl-6-(cyclopropylmethoxy)-N-[1-(1-hydroxy-2-methylpropan-2-yl)pyrazol-4-yl]pyridine-2-carboxamide]",224 nM
18,"CC(C)(Cc1nnc(C2CCC2)o1)NC(=O)c1cccc(-c2cccc(Cl)c2)n1 [Example 13, 6-(3-Chlorophenyl)-N-[1-(5-cyclobutyl-1,3,4-oxadiazol-2-yl)-2-methylpropan-2-yl]pyridine-2-carboxamide]",294 nM
19,"CC(C)(CN=[N+]=[N-])c1cc(NC(=O)c2cnc(C3CC3)c(OCC3CC3)n2)on1 [Example 26, N-[3-(1-Azido-2-methylpropan-2-yl)-1,2-oxazol-5-yl]-5-cyclopropyl-6-(cyclopropylmethoxy)pyrazine-2-carboxamide]",12.4 nM
20,"CC(C)(Cc1nnc(-c2ccccc2)o1)NC(=O)c1cccc(OCC(F)(F)F)n1 [Example 3, N-[2-Methyl-1-(5-phenyl-1,3,4-oxadiazol-2-yl)propan-2-yl]-6-(2,2,2-trifluoroethoxy)pyridine-2-carboxamide]",132 nM
21,"CC(C)(Cc1nc(-c2ccccc2)no1)NC(=O)c1cccc(-c2ccc(Cl)cc2)n1 [Example 4, 6-(4-Chlorophenyl)-N-[2-methyl-1-(3-phenyl-1,2,4-oxadiazol-5-yl)propan-2-yl]pyridine-2-carboxamide]",339 nM
22,"CC(C)(CO)c1cc(NC(=O)c2cnc(C3CC3)c(OCC3CC3)n2)on1 [Example 25, 5-Cyclopropyl-6-(cyclopropylmethoxy)-N-[3-(1-hydroxy-2-methylpropan-2-yl)-1,2-oxazol-5-yl]pyrazine-2-carboxamide]",51.6 nM

# Same assay, conditions: CHO cells expressing human CB2 receptors; read-out: cAMP assay human CB2 EC50
row,SMILES,EC50
1,"CC(C)(Cc1nnc(-c2ccc(F)cc2)o1)NC(=O)c1ccc(N2CC(F)(F)C2)c(OCC2CC2)n1 [Example 27, 6-(Cyclopropylmethoxy)-5-(3,3-difluoroazetidin-1-yl)-N-[1-[5-(4-fluorophenyl)-1,3,4-oxadiazol-2-yl]-2-methylpropan-2-yl]pyridine-2-carboxamide]",2890 nM
2,"CCOCCOCC(C)(C)c1cc(NC(=O)c2ccc(C3CCCC3)c(OCC3CC3)n2)on1 [Example 30, 5-Cyclopentyl-6-(cyclopropylmethoxy)-N-[3-[1-(2-ethoxyethoxy)-2-methylpropan-2-yl]-1,2-oxazol-5-yl]pyridine-2-carboxamide]",176 nM
3,"CC(C)(Cc1nnc(-c2ccccc2)o1)NC(=O)c1cccc(-c2ccc(Cl)cc2)n1 [Example 2, 6-(4-Chlorophenyl)-N-[2-methyl-1-(5-phenyl-1,3,4-oxadiazol-2-yl)propan-2-yl]pyridine-2-carboxamide]",165 nM
4,"CC(C)(Cc1nc(-c2ccccc2)no1)NC(=O)c1cccc(OCC(F)(F)F)n1 [Example 5, N-[2-Methyl-1-(3-phenyl-1,2,4-oxadiazol-5-yl)propan-2-yl]-6-(2,2,2-trifluoroethoxy)pyridine-2-carboxamide]",554 nM
5,"COCCOCC(C)(C)c1cc(NC(=O)c2ccc(C3CCCC3)c(OCC3CC3)n2)on1 [Example 29, 5-Cyclopentyl-6-(cyclopropylmethoxy)-N-[3-[1-(2-methoxyethoxy)-2-methylpropan-2-yl]-1,2-oxazol-5-yl]pyridine-2-carboxamide]",175 nM
6,"CC(C)(Cc1nc(-c2ccccc2)no1)NC(=O)c1cccc(-c2cccc(Cl)c2)n1 [Example 8, 6-(3-Chlorophenyl)-N-[2-methyl-1-(3-phenyl-1,2,4-oxadiazol-5-yl)propan-2-yl]pyridine-2-carboxamide]",194 nM
7,"CC(C)(Cc1nc(-c2ccccc2)no1)NC(=O)c1cccc(N2CCCC2=O)n1 [Example 12, N-[2-Methyl-1-(3-phenyl-1,2,4-oxadiazol-5-yl)propan-2-yl]-6-(2-oxopyrrolidin-1-yl)pyridine-2-carboxamide]",662 nM
8,"CC(C)(Cc1nnc(-c2ccc(F)cc2)o1)NC(=O)c1ccc(C2CCCC2)c(OCC2CC2)n1 [Example 28, 5-Cyclopentyl-6-(cyclopropylmethoxy)-N-[1-[5-(4-fluorophenyl)-1,3,4-oxadiazol-2-yl]-2-methylpropan-2-yl]pyridine-2-carboxamide]",2760 nM
